These results are taken from patent publication US20230117034A1, “PYRAZOLOTRIAZINES” (Bayer Aktiengesellschaft, priority 2019, published 2023).

Some results are limits rather than exact numbers.

The subject of assay [1] is MDA-MB-231, human breast cancer cells. The assay is described as follows: Proliferation assay MDA-MB-231 (crystal violet, 4 days). The settings on record: Homo sapiens, MDA-MB-231, 96 h, MDA-MB-231 cells, median, read-out: Prolif-MDA MB-231, IC50-[mol/l] (median). The class given is cell-based. Summed up:
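Crystal violet proliferation read-out after 4 days of compound exposure (0.01-10 µmol/L; solvent 0.1% DMSO). Extinction at 595 nm, set between zero-point (0%) and vehicle (100%), fitted with 4 parameters to give IC50.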

The next assay concerns the target T1, CDK9/CycT1 (Homo sapiens, UniProt P50750).
T1 construct: Recombinant full-length His-tagged human CDK9 and CycT1; purchased Life Technologies PV4131; host or cells: insect cells
The assay is described as follows: CDK9/CycT1 high ATP kinase assay (TR-FRET, 2 mM ATP). The format is biochemical. The conditions noted are these: 2 mM ATP (high ATP); median; read-out: CDK9/CyclinT1, 2 mM ATP (high ATP), IC50 (median). Summed up:
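Full-length His-tagged human CDK9/CycT1 (insect cell, ~0.5 μg/mL) preincubated 15 min at 22 °C with compound in Tris pH 8.0, MgCl2, DTT buffer before reaction with biotinylated peptide substrate at high ATP (2 mM).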
Background: Time-resolved FRET reads energy transfer from a long-lived donor to a nearby acceptor.

Assay [2] has as its system BRCA1 mRNA expression in MDA-MB-231 cells. Kind of assay: qRT-PCR assay: BRCA1 mRNA expression in MDA-MB-231. The format is cell-based, human. The settings on record: Homo sapiens, MDA-MB-231, Inhibition of BRCA1 mRNA expression in MDA-MB-231 cells; median; read-out: RTqPCR-MDA-MB-231, IC50, BRCA1 (median). A digest of the protocol: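 Human breast cancer cells, 200,000/well, were treated with test agents for 24 h without interruption after a 24 h settling period. Gene expression came from qPCR on cDNA made from 600 ng RNA, relative to GAPDH.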
A general note: Real-time PCR tracks product formation cycle by cycle.

T1 sequence (P50750 whole entry): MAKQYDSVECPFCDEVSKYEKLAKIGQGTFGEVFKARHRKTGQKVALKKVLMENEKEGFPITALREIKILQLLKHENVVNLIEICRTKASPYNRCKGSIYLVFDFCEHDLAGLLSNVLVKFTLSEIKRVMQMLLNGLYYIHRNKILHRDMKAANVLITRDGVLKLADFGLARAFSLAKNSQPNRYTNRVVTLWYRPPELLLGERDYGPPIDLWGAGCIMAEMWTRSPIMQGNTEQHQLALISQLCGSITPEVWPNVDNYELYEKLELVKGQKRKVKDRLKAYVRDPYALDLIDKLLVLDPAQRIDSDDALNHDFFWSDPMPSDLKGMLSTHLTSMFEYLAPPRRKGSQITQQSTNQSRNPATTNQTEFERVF
T1 sequence (O60563 whole entry partner): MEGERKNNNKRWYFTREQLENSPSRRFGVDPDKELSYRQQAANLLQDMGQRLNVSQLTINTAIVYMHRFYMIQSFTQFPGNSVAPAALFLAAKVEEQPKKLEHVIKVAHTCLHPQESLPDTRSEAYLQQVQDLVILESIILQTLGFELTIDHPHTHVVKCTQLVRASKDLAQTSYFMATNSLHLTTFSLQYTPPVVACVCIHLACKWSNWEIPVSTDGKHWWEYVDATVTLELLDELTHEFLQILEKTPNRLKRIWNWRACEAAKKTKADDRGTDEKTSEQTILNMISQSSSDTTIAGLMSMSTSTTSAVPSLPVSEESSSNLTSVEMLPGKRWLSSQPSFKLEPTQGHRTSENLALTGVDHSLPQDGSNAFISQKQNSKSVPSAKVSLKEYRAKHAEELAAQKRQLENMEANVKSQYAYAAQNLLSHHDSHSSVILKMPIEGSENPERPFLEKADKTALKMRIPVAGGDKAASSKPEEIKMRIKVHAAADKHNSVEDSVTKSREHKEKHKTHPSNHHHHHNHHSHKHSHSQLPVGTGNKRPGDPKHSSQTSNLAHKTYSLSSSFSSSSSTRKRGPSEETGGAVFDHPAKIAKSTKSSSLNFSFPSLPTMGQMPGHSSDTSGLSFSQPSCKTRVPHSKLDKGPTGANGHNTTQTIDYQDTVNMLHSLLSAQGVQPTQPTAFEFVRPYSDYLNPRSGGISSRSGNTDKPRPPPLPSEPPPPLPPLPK

With `Fc1ccc2[nH]c(CNc3nc(N4CCOCC4)nc4c(C5CC5(F)F)cnn34)nc2c1` (racemic) [Example 286, 8-[(1RS)-2,2-difluorocyclopropyl]-N-[(5-fluoro-1H-benzimidazol-2-yl)methyl]-2-(morpholin-4-yl)pyrazolo[1,5-a][1,3,5]triazin-4-amine], the values for the IC50 (in assay [1]; at CDK9/CycT1; in assay [2]) were 20 nM, over 20000 nM and 10.6 nM, respectively.

Consider `c1ccc2[nH]c(CNc3nc(N4C[C@@H]5C[C@H]4CO5)nc4c(C5CC5)cnn34)nc2c1` [Example 254, N-[(1H-benzimidazol-2-yl)methyl]-8-cyclopropyl-2-[(1S,4S)-2-oxa-5-azabicyclo[2.2.1]heptan-5-yl]pyrazolo[1,5-a][1,3,5]triazin-4-amine], for which the IC50 in assay [1] was 181 nM; on CDK9/CycT1, over 20000 nM; in assay [2] it was 60.5 nM.

Turning to `FC1(F)CC1c1cnn2c(NCc3nc4ccccc4[nH]3)nc(N3CCOCC3)nc12` (stereo not drawn) [Example 279, N-[(1H-benzimidazol-2-yl)methyl]-8-(2,2-difluorocyclopropyl)-2-(morpholin-4-yl)pyrazolo[1,5-a][1,3,5]triazin-4-amine], the IC50 in assay [1] was 34.8 nM; on CDK9/CycT1, over 20000 nM; in assay [2] it was 12 nM.

Take `Brc1cnn2c(NCc3nc4ccccc4[nH]3)nc(N3C[C@H]4CC[C@@H]3CN4)nc12` (single isomer, unassigned) [Example 316, N-[(1H-benzimidazol-2-yl)methyl]-8-bromo-2-{[1R or S-(1R*4R*)]-2,5-diazabicyclo[2.2.2]octan-2-yl}pyrazolo[1,5-a][1,3,5]triazin-4-amine]: the IC50 worked out at 22.8 nM in assay [1], 12900 nM on CDK9/CycT1 and 12.4 nM in assay [2].

`Brc1cnn2c(NCc3nnc(-c4ccccc4)[nH]3)nc(N3CCOCC3)nc12` [Example 24, 8-bromo-2-(morpholin-4-yl)-N-[(5-phenyl-4H-1,2,4-triazol-3-yl)methyl]pyrazolo[1,5-a][1,3,5]triazin-4-amine]: the values for the IC50 (in assay [1]; on CDK9/CycT1; in assay [2]) were 53.3 nM, 3060 nM and 10 nM, respectively.

As to `NC12CC1CN(c1nc(NCc3nc4ccccc4[nH]3)n3ncc(Br)c3n1)C2` (stereo not drawn) [Example 258, 2-(1-amino-3-azabicyclo[3.1.0]hexan-3-yl)-N-(1H-benzimidazol-2-ylmethyl)-8-bromo-pyrazolo[1,5-a][1,3,5]triazin-4-amine], the IC50 was 55.5 nM in assay [1], over 20000 nM on CDK9/CycT1 and 12.1 nM in assay [2].

Take `CCNC1CCN(c2nc(NCc3nc4ccccc4[nH]3)n3ncc(Br)c3n2)CC1` [Example 300]: the IC50 is 106 nM in assay [1], over 20000 nM at CDK9/CycT1 and 12.6 nM in assay [2].

For the molecule `CN(CC(C)(C)O)c1nc(NCc2nc3c(F)cccc3[nH]2)n2ncc(C3CC3)c2n1` [Example 295, 1-[(8-cyclopropyl-4-{[(4-fluoro-1H-benzimidazol-2-yl)methyl]amino}pyrazolo[1,5-a][1,3,5]triazin-2-yl)(methyl)amino]-2-methylpropan-2-ol], the IC50 in assay [1] worked out at 23.7 nM; at CDK9/CycT1, 9270 nM; in assay [2], 4.81 nM.

`Fc1ccc2[nH]c(CNc3nc(N4CCOCC4)nc4c([C@@H]5CC5(F)F)cnn34)nc2c1` (single isomer, unassigned) [Example 315, 8-[(1R or S)-2,2-difluorocyclopropyl]-N-[(5-fluoro-1H-benzimidazol-2-yl)methyl]-2-(morpholin-4-yl)pyrazolo[1,5-a][1,3,5]triazin-4-amine]: the figures for the IC50 (in assay [1]; on CDK9/CycT1; in assay [2]) were 88 nM, over 20000 nM and 75.3 nM, respectively.

Consider `Fc1ccc2[nH]c(CNc3nc(N4CCOCC4)nc4c(C5CCC5)cnn34)nc2c1F` [Example 264, 8-cyclobutyl-N-[(4,5-difluoro-1H-benzimidazol-2-yl)methyl]-2-(morpholin-4-yl)pyrazolo[1,5-a][1,3,5]triazin-4-amine], for which the IC50 in assay [1] was 23 nM; at CDK9/CycT1, over 20000 nM; in assay [2], 6.32 nM.

For the molecule `Brc1cnn2c(NCc3nc4ccccc4[nH]3)nc(N3C[C@@H]4C[C@H]3CN4)nc12` [Example 270, N-[(1H-benzimidazol-2-yl)methyl]-8-bromo-2-[(1S,4S)-2,5-diazabicyclo[2.2.1]heptan-2-yl]pyrazolo[1,5-a][1,3,5]triazin-4-amine], the IC50 was 22.5 nM in assay [1], over 20000 nM on CDK9/CycT1 and 6.41 nM in assay [2].

In the case of `N[C@@H]1[C@@H]2C[C@H]1CN(c1nc(NCc3nc4ccccc4[nH]3)n3ncc(Br)c3n1)C2` [Example 289, 2-[(1R,5S,6s)-6-amino-3-azabicyclo[3.1.1]heptan-3-yl]-N-[(1H-benzimidazol-2-yl)methyl]-8-bromopyrazolo[1,5-a][1,3,5]triazin-4-amine], the IC50 in assay [1] is 10.3 nM; on CDK9/CycT1, over 20000 nM; in assay [2] it was 2.91 nM.

`COc1ccc2[nH]c(CNc3nc(N4CCOCC4)nc4c(C(F)(F)F)cnn34)nc2c1` [Example 257, N-[(5-methoxy-1H-benzimidazol-2-yl)methyl]-2-(morpholin-4-yl)-8-(trifluoromethyl)pyrazolo[1,5-a][1,3,5]triazin-4-amine]: the values for the IC50 (in assay [1]; at CDK9/CycT1; in assay [2]) were 10.7 nM, over 20000 nM and 6.97 nM, respectively.

On to `N[C@@H]1CCN(c2nc(NCc3nc4ccccc4[nH]3)n3ncc(Br)c3n2)C1` [Example 250, 2-[(3R)-3-aminopyrrolidin-1-yl]-N-[(1H-benzimidazol-2-yl)methyl]-8-bromopyrazolo[1,5-a][1,3,5]triazin-4-amine], for which the IC50 in assay [1] was 34.4 nM; on CDK9/CycT1, over 20000 nM; in assay [2], 10.5 nM.

With `FC(F)(F)Cc1cnn2c(NCc3nc4cc(Cl)c(Cl)cc4[nH]3)nc(N3CCOCC3)nc12` [Example 302, N-[(5,6-dichloro-1H-benzimidazol-2-yl)methyl]-2-(morpholin-4-yl)-8-(2,2,2-trifluoroethyl)pyrazolo[1,5-a][1,3,5]triazin-4-amine], the IC50 in assay [1] was 11.9 nM; at CDK9/CycT1 it was over 20000 nM; in assay [2], 9.06 nM.

As for `Fc1ccc2[nH]c(CNc3nc(N4CCOCC4)nc4c(C5CC5(F)F)cnn34)nc2c1` (single isomer, unassigned) [Example 314, 8-[(1R or S)-2,2-difluorocyclopropyl]-N-[(5-fluoro-1H-benzimidazol-2-yl)methyl]-2-(morpholin-4-yl)pyrazolo[1,5-a][1,3,5]triazin-4-amine], the IC50 is 31.3 nM in assay [1], over 20000 nM on CDK9/CycT1 and 35.7 nM in assay [2].

Regarding `c1ccc2[nH]c(CNc3nc(N4C[C@@H]5CCCN[C@@H]5C4)nc4c(C5CC5)cnn34)nc2c1` [Example 249, N-[(1H-benzimidazol-2-yl)methyl]-8-cyclopropyl-2-[(4aS,7aS)-octahydro-6H-pyrrolo[3,4-b]pyridin-6-yl]pyrazolo[1,5-a][1,3,5]triazin-4-amine], the IC50 in assay [1] is 40.3 nM; on CDK9/CycT1, over 20000 nM; in assay [2] it was 5.69 nM.

`Brc1cnn2c(NCc3nc4ccncc4[nH]3)nc(N3CCOCC3)nc12` [Example 22, 8-bromo-N-[(3H-imidazo[4,5-c]pyridin-2-yl)methyl]-2-(morpholin-4-yl)pyrazolo[1,5-a][1,3,5]triazin-4-amine]: the IC50 is 593 nM in assay [1], over 18400 nM at CDK9/CycT1 and 131 nM in assay [2].

With `Cc1cc2nc(CNc3nc(N4CCN(C)CC4)nc4c(C5CC5)cnn34)[nH]c2cc1C` [Example 312, 8-cyclopropyl-N-[(5,6-dimethyl-1H-benzimidazol-2-yl)methyl]-2-(4-methylpiperazin-1-yl)pyrazolo[1,5-a][1,3,5]triazin-4-amine], the figures for the IC50 (in assay [1]; at CDK9/CycT1; in assay [2]) were 3.21 nM, over 20000 nM and 2.04 nM, respectively.

For `Fc1ccc2[nH]c(CNc3nc(N4C[C@H]5CC[C@@H](C4)N5)nc4c(C5CC5)cnn34)nc2c1F` [Example 294, 8-cyclopropyl-2-[(1R,5S)-3,8-diazabicyclo[3.2.1]octan-3-yl]-N-[(4,5-difluoro-1H-benzimidazol-2-yl)methyl]pyrazolo[1,5-a][1,3,5]triazin-4-amine], the IC50 in assay [1] stood at 3.37 nM; on CDK9/CycT1, 15300 nM; in assay [2] it was 1.16 nM.

With `Fc1cc2nc(CNc3nc(N4CCOCC4)nc4c(C5CC5)cnn34)[nH]c2cc1Cl` [Example 307, N-[(6-chloro-5-fluoro-1H-benzimidazol-2-yl)methyl]-8-cyclopropyl-2-(morpholin-4-yl)pyrazolo[1,5-a][1,3,5]triazin-4-amine], the IC50 was 5.05 nM in assay [1], over 20000 nM at CDK9/CycT1 and 8.07 nM in assay [2].

As for `FC(F)(F)Cc1cnn2c(NCc3nc4cc(Cl)ccc4[nH]3)nc(N3CCOCC3)nc12` [Example 299, N-[(5-chloro-1H-benzimidazol-2-yl)methyl]-2-(morpholin-4-yl)-8-(2,2,2-trifluoroethyl)pyrazolo[1,5-a][1,3,5]triazin-4-amine], the results for the IC50 (in assay [1]; on CDK9/CycT1; in assay [2]) were 8.53 nM, over 20000 nM and 8.86 nM, respectively.
